The values that follow come from paper PMC12051620, “Molecular basis underlying the specificity of an antagonist AA92593 for mammalian melanopsins” (The Journal of Biological Chemistry, 2025).

For this assay, the system named is lanceolatum melanopsin WT. As to the kind of experiment: GsX GloSensor assay with Gsα/q11. The format is cell-based, Branchiostoma lanceolatum. To be noted: 16.7 μM AA92593, COS-1 cells. The text has this:
Non-mammalian-type melanopsins were successfully converted into AA92593-susceptible types by introducing Phe-94^2.61/Ser-188^ECL2/Ser-269^6.52 or Phe-207^5.42 (Fig. 6). We attempted to extend the functional conversion targets to invertebrate melanopsin (see Fig. S2). […] We assessed the susceptibility of belcheri and lanceolatum melanopsins to AA92593 using the GsX GloSensor assay with Gsα/q11. In the absence of AA92593, the belcheri melanopsin produced smaller light-dependent cAMP responses than the other melanopsins assessed in this study (Fig. 7A), whereas the lanceolatum melanopsin produced robust cAMP responses upon light illumination (Fig. 7B). […] On the other hand, responses by the lanceolatum melanopsin were insensitive to the antagonist (Fig. 7B), similar to non-mammalian-type melanopsins (Fig. 6, A and D). […]
For GloSensor assay, opsins, GloSensor assay sensor (coded by pGlo-22F), and NanoBiT-tagged G proteins were transiently expressed in COS-1 cells (kindly provided from Dr David Farrens, Oregon Health and Science University) using PEI as described previously ([24], [52]). […] For GFP-fluorescence microscopy, a 35-mm cell culture dish (IWAKI) was transfected with 2 μg melanopsin-GFP plasmid and 8 μg PEI in 400 μl Opti-mem and 1.2 ml D-MEM. […]

For the molecule `COc1ccc(S(=O)(=O)N2CCCCC2)cc1C` [AA92593], the “sensitivity of light-induced responses to the antagonist” value is “insensitive”.
